The subject of experiment [1] is unilateral Substantia nigralädierten Ratten. In words: Induction of contralateral rotations in rats with unilateral 6-OHDA lesion of the substantia nigra (automated rotometer). It counts as in vivo, Wistar-Ratten. The protocol: Die erfindungsgemäße Wirkung wird am Beispiel des CPP dargestellt: Auslösung von kontralateralen Rotationen an unilateral Substantia nigralädierten Ratten. Männliche Wistar-Ratten wurden 8 Monate vor dem Experiment durch Injektion von 16 µg 6-Hydroxydopamin (6-OHDA) in die linke Substantia nigra lädiert. Die Messung der Rotationen erfolgte in automatisierten Rotometern. Die Tiere wurden in Plexiglas-Halbschalen (Durchmesser 40 cm) gesetzt und mechanisch mit einem Winkelschrittgeber verbunden. Die Bewegungen mit und entgegen dem Uhrzeigersinn wurden getrennt in 10-Minuten-Intervallen für 2 Stunden erfasst.
Die Ergebnisse dieser Versuche lassen sich wie folgt zusammenfassen: Die mit Lösungsmitteln behandelten Tiere zeigen kaum spontane Rotationen.

Experiment [2] concerns MPTP-behandelten Pinselohräffchen. Briefly: Experimental Parkinson syndrome induced by the neurotoxin MPTP in marmosets. It counts as in vivo. The protocol: In gleicher Weise wurden die erfindungsgemäßen Verbindungen am Pinselohräffchen untersucht, bei denen durch das Neurotoxin MPTP ein experimentelles Parkinsonsyndrom erzeugt wurde.
Im gleichen Modell wurde CPP (0.1, 0.39, 1.56 mg/kg i.p.) mit den direkten Dopaminagonisten Apomorphin (0.05 mg/kg i.p. ) oder Lisurid (0.1 mg/kg i.p. ) geprüft (Abb. 3 und 4).

Turning to `N[C@@H](Cc1ccc(O)c(O)c1)C(=O)O` [L+Dopa], the Rotationsbewegungen result in experiment [1] (L+Dopa 25 mg/kg i.p. and Benserazid 100 mg/kg i.p., without CPP, 6-OHDA-lesioned rats) is recorded as “leichte Rotationsbewegungen”.
For the compound `O=C(O)C1CN(CCCP(=O)(O)O)CCN1` (racemic) [CPP, 3-((±)-2-carboxy-piperazin-4-yl)-propyl-1-phosphonsäure], in experiment [2] (CPP 0,1, 0,39, 1,56 mg/kg i.p. added to L-Dopa 20 mg/kg i.p. + Benserazid 20 mg/kg i.p., Abb. 2), the “Wirkung von L-Dopa und Benserazid” value was “dosisabhängig verstärkt”. Also, the “kombinierte Behandlung mit Apomorphin” value in experiment [2] (CPP 0.1, 0.39, 1.56 mg/kg i.p. with Apomorphin 0.05 mg/kg i.p., analysis of variance and Tukey test, p < 0.0.1, Abb. 3 und 4) is reported as “signifikantem Synergismus”. Moreover, the “kombinierte Behandlung mit Lisurid” value in experiment [2] (CPP 0.1, 0.39, 1.56 mg/kg i.p. with Lisurid 0.1 mg/kg i.p., analysis of variance and Tukey test, p < 0.0.1, Abb. 3 und 4) is “signifikantem Synergismus”. Besides, the “durch L-Dopa induzierte Rotationen” value in experiment [1] (CPP 0,025, 0,39, 1,56 and 6,25 mg/kg i.p. added to L-Dopa 25 mg/kg i.p. + Benserazid 100 mg/kg i.p., Abb. 1) is listed as “dosisabhängig verstärkt”. The “Zahl der Rotationen in 2 Stunden” value in experiment [1] (highest dose of CPP (6,25 mg/kg i.p.) plus L-Dopa + Benserazid, compared with L-Dopa treatment, Abb. 1) is “signifikant von der L-Dopa Behandlung verschieden”.

The values above are taken from patent EP0517347A1, “New combinations for the treatment of Parkinsons disease, containing NMDA-antagonists” (SCHERING AKTIENGESELLSCHAFT, priority 1991, dated 1992).
